Molecular target: T1, PRMT7 (Homo sapiens, UniProt Q9NVM4)
T1 sequence (Q9NVM4 1-692): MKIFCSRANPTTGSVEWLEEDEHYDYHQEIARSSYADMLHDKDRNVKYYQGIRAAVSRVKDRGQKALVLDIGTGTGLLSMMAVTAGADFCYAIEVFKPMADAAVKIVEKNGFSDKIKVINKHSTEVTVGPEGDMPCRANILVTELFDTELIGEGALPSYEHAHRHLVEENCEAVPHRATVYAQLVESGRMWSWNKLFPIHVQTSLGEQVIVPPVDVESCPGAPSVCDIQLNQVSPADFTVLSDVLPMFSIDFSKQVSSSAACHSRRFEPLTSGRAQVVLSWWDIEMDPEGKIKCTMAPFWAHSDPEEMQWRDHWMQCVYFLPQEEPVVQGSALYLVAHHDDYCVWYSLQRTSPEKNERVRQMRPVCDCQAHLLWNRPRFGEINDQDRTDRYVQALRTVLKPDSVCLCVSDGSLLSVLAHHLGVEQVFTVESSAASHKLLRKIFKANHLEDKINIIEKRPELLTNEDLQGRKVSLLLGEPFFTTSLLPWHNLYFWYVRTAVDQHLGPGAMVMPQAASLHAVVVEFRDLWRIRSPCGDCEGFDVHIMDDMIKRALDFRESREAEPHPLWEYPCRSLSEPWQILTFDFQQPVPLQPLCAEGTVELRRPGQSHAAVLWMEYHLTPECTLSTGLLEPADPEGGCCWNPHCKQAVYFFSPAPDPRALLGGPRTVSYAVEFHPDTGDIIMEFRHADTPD
Assay: PRMT panel selectivity test, PRMT7
Assay type: biochemical
Procedure: [The procedure below names another target; the source says it served here with some conditions changed.] PRMT1 enzyme activity test were performed in a buffer prepared on the same day 5 consisting of 10 mMTirs-HCl (pH=8.0), 0.01% Tween-20 and 1 mM DTT. The compounds were prepared to the highest inhibitor concentration ultimately required in the 100× reaction with 100% DMSO and then transferred to one well of a 384-well Echo plate (Echo-eligible 384-well polypropylene microplates 2.0, transparent, flat-bottomed) and sequentially diluted in the next well with a 3-fold dilution of 100% DMSO, and so on, with a total of 10 concentrations based on Precision. 100% DMSO was added to two empty wells to serve as control well without compound and control well without enzyme in the same 384-well Echo plate. 250 nL of compound was transferred from each well of the 384-well Echo plate to a 384-well assay plate (384-well polypropylene storage microplate) via the Echo 550 liquid processor. For wells with compounds and control well without compound, a mixture (15 uL) containing PRMT1 enzyme was added to the 384-well assay plate. For control wells without enzyme, the mixture containing the assay buffer (15 uL) was added instead. The compounds were allowed to incubate with PRMT1 for 15 minutes at room temperature, and then a mixture containing ^3H-SAM and peptide (10 uL) was added to start the reaction (final volume=25 uL). […] After 120 min of incubation, the assay was terminated by the addition of non-radiolabeled SAM (5 uL) to a final concentration of 125 uM, which diluted 3H-SAM to a level at which its incorporation into the peptide substrate was no longer detected. […] Plates were read on a microplate counter (MicroBeta2) to measure the amount of ^3H-labeled peptide bound to the surface of the detection plate, measured in counts per minute (cpm).
The raw data were copied from the Reader and the inhibition values were calculated in Excel by Equation (1), Equation (1): Inh %=(CPMmax−CPMcmpd)/(CPMmax−CPMmin)*100, wherein the Max signal was obtained from the enzyme-substrate interaction and the Min signal was obtained from the substrate. […]

| IC50 | Compound |
| --- | --- |
| ≥ 10 µM | CNCCN(C)Cc1ccccc1C1CCN(c2ccccc2)CC1 [P023] |
| ≥ 10 µM | CNCCN(C)Cc1ncccc1N1CCc2ccccc2CC1 [P118] |
| ≥ 10 µM | CCOCC1(COCC)CCC(c2cccnc2CN(C)CCNC)CC1 [P207] |

Reference: US20240307409A1, “ARGININE METHYLTRANSFERASE INHIBITOR AND USE THEREOF” (Cytosinlab Therapeutics Co., Ltd., priority 2021, published 2024)
